Measurements taken from US10208033B2, “β-carboline, dihydro-β-carboline and tetrahydro-β-carboline alkaloid derivatives and preparation methods same and use in aspects of preventing and treating plant viruses, fungicides and insecticides” (NANKAI UNIVERSITY, priority 2013, dated 2019).
≈ marks a conversion by molar mass, not a printed value.

What was measured:
[1] = system: Lipaphis erysimi; conditions: in vivo; cited from earlier work
[2] = system: culex pipiens larvae; conditions: in vivo; cited from earlier work
[3] = target: monoamine oxidase (MAO-A) (Homo sapiens, UniProt P21397); conditions: cited from earlier work
monoamine oxidase (MAO-A), sequence (P21397 whole entry, species assumed): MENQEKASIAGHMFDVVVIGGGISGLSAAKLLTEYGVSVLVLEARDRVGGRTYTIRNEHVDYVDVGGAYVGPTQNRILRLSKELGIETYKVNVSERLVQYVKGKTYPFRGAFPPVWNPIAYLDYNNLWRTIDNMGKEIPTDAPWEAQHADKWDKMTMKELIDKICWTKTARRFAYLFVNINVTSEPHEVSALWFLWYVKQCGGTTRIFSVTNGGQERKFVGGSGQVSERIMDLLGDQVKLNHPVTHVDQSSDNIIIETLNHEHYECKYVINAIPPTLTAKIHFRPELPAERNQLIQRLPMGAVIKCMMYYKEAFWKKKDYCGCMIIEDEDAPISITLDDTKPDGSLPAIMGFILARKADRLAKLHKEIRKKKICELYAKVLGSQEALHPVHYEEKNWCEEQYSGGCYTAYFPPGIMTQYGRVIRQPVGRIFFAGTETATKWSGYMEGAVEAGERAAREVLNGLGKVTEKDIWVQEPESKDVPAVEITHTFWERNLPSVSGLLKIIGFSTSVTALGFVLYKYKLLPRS

[4] = system: corn borers; test: whole plant or invertebrate; conditions: read-out: Corn borer Mortality (%)
[5] = system: Botrytis cinerea; test: Fungicidal (bactericidal) activity in vitro, PDA colony diameter; format: cell-based; conditions: 50 mg/kg
[6] = system: Rhizoctonia cereali; test: as above; format: cell-based; conditions: 50 mg/kg
[7] = system: tobacco mosaic virus (TMV); test: Anti-TMV in vivo inactivation; parameters: species or system tobacco mosaic virus (host Nicotiana tabacum L.cv.Xanthi NN)
[8] = system: Sclerotinia scleotiorum; test: Fungicidal (bactericidal) activity in vitro, PDA colony diameter; format: cell-based; conditions: 50 mg/kg
[9] = system: Fusarium graminearumt; test: microbe, parasite or virus in culture; format: cell-based; conditions: for Bactericidal activity (%) Fusarium graminearumt: 50 mg/kg
[10] = system: tobacco mosaic virus (TMV); test: Anti-TMV in vitro effect (half-leaf soaking); format: cell-based, tobacco mosaic virus (host Nicotiana tabacum L.cv.Xanthi NN)
[11] = system: Macrophoma kawatsukai; test: Fungicidal (bactericidal) activity in vitro, PDA colony diameter; format: cell-based; conditions: 50 mg/kg
[12] = system: potato late blight; test: microbe, parasite or virus in culture; format: cell-based
[13] = system: Cercospora arachidicola; test: Fungicidal (bactericidal) activity in vitro, PDA colony diameter; format: cell-based; conditions: 50 mg/kg
[14] = system: tobacco mosaic virus (TMV); test: Anti-TMV in vivo therapeutic effect; parameters: species or system tobacco mosaic virus (host Nicotiana tabacum L.cv.Xanthi NN)
[15] = system: Bipolaria maydis; test: organism not typed; format: cell-based; conditions: for Bactericidal activity (%) Bipolaria maydis: 50 mg/kg
[16] = system: cucumber fusarium wilt; test: Fungicidal (bactericidal) activity in vitro, PDA colony diameter; format: cell-based; conditions: 50 mg/kg
[17] = system: HL60; conditions: cited from earlier work
[18] = system: Colletotrichum orbiculare; test: Fungicidal (bactericidal) activity in vitro, PDA colony diameter; format: cell-based; conditions: 50 mg/kg
[19] = system: cotton bollworms; test: whole plant or invertebrate; conditions: for Cotton bollworm Mortality (%): concentration 600 mg/kg
Experimental: Experimental method of cotton bollworms: feed and drug mixing method: measure 3 mL of prepared solution and add it to about 27 g of newly prepared feed, thereby obtaining needed concentration through dilution by 10 times.

[20] = system: Fusarium fujikuroi; test: Fungicidal (bactericidal) activity in vitro, PDA colony diameter; format: cell-based; conditions: 50 mg/kg
[21] = system: mosquito larvae; test: whole plant or invertebrate; conditions: 24 h; for Mosquito larvae Mortality (%): concentration 10 mg/kg
How it was run: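 Early fourth-instar Culex pipiens pallens larvae from an indoor colony, 10 per beaker, exposed to test compound at 5 ppm in water, diluted from a 1000 ppm acetone mother solution. Blank: water containing 0.5 mL test solvent.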

[22] = system: armyworms; format: in vivo; conditions: concentration 600 mg/kg
[23] = system: Rhizoctonia solani; test: Fungicidal (bactericidal) activity in vitro, PDA colony diameter; format: cell-based; conditions: 50 mg/kg
[24] = system: tobacco mosaic virus (TMV); test: Anti-TMV in vivo protective effect; parameters: species or system tobacco mosaic virus (host Nicotiana tabacum L.cv.Xanthi NN)
[25] = system: Alternaria solani; test: Fungicidal (bactericidal) activity in vitro, PDA colony diameter; format: cell-based; conditions: 50 mg/kg
[26] = system: Phytophthora capsici; test: as above; format: cell-based; conditions: 50 mg/kg
[27] = system: corn borers; conditions: concentration 600 mg/kg
[28] = system: 14 kinds of fungi; test: Bactericidal activity, overall statements on Table 2; format: cell-based; conditions: Table 2, 50 mg/kg
Text: In vitro test method (Alternaria solani is taken for example. Alternatively, other fungi may be used): Inoculate Alternaria solani to PDA culture medium, culture it for 7 days, prepare […] bacteria plates from colony edge by a puncher, inoculate […] and drug-free PDA culture media, culture them for 4 days, measure colony diameter, compare with the control group and calculate the inhibition percentage of the drug.

Compound: COC(=O)c1cc2c([nH]c3ccccc32)c(-c2ccccc2)n1
- LC50 against Lipaphis erysimi [1]: 53.16 mg/L (≈ 176 µM)
- LC50 against culex pipiens larvae [2]: 20.82 mg/L (≈ 68.9 µM)

Compound: COC(=O)C1Cc2c([nH]c3ccccc23)C(c2ccccc2)N1 (stereo not shown)
- LC50 against Lipaphis erysimi [1]: 68.05 mg/L (≈ 222 µM)
- LC50 against culex pipiens larvae [2]: 23.98 mg/L (≈ 78.3 µM)

Compound: COc1ccc2c3c([nH]c2c1)C(C)=NCC3 [Harmaline]
- inhibition of monoamine oxidase (MAO-A) [3]: reversible inhibitor

Compound: COc1ccc2c(c1)[nH]c1c(C)nccc12 [Harmine]
- mortality at 600 mg/kg [4]: 15%
- inhibition of growth at 50 mg/kg ([5]; Botrytis cinerea, 96 h): 59.1%
- inhibition of growth at 50 mg/kg ([6]; Rhizoctonia, 96 h): 71.9%
- inhibition at 100 µg/mL ([7]; Tobacco mosaic virus, treatment dose 100 μg/mL, read-out: Relative inhibition rate (%) In vivo inactivation): 11.4%
- inhibition at 500 µg/mL ([7]; Tobacco mosaic virus, treatment dose 500 μg/mL, read-out: Relative inhibition rate (%) In vivo inactivation): 40.5%
- inhibition of growth at 50 mg/kg ([8]; Sclerotinia, 96 h): 48%
- inhibition of growth at 50 mg/kg ([9]; Fusarium, 96 h, read-out: Bactericidal activity (%) Fusarium graminearumt): 92.9%
- inhibition at 100 µg/mL ([10]; Tobacco mosaic virus, treatment dose 100 μg/mL, read-out: Relative inhibition rate (%) In vitro activity): 20%
- inhibition at 500 µg/mL ([10]; Tobacco mosaic virus, treatment dose 500 μg/mL, read-out: Relative inhibition rate (%) In vitro activity): 44.6%
- inhibition at 50 mg/kg [11]: 35.3%
- inhibition of growth at 50 mg/kg ([12]; Phytophthora infestans, 96 h, read-out: Bactericidal activity (%) potato late blight): 35%
- inhibition of growth at 50 mg/kg ([13]; Mycosphaerella arachidis, 96 h): 57.1%
- inhibition at 100 µg/mL ([14]; Tobacco mosaic virus, treatment dose 100 μg/mL, read-out: Relative inhibition rate (%) In vivo therapy): 15.8%
- inhibition at 500 µg/mL ([14]; Tobacco mosaic virus, treatment dose 500 μg/mL, read-out: Relative inhibition rate (%) In vivo therapy): 38.6%
- inhibition at 50 mg/kg ([15]; read-out: Bactericidal activity (%) Bipolaria maydis): 31.6%
- inhibition of growth at 50 mg/kg ([16]; Fusarium, 96 h): 28.6%
- cytotoxicity to leukemia cell line HL60 [17]: shows cytotoxicity
- inhibition of growth at 50 mg/kg ([18]; Colletotrichum orbiculare, 96 h): 57.1%
- mortality at 600 mg/kg ([19]; Helicoverpa armigera, in Gossypium hirsutum, read-out: Cotton bollworm Mortality (%)): 15%
- inhibition of growth at 50 mg/kg ([20]; Fusarium fujikuroi, 96 h): 57.1%
- mortality at 10 mg/kg ([21]; Culex pipiens, read-out: Mosquito larvae Mortality (%)): 45%
- Armyworm Mortality (%) [22]: 20%
- inhibition of growth at 50 mg/kg ([23]; Rhizoctonia solani, 96 h): 21.4%
- inhibition at 100 µg/mL ([24]; Tobacco mosaic virus, treatment dose 100 μg/mL, read-out: Relative inhibition rate (%) In vivo protection): 16.3%
- inhibition at 500 µg/mL ([24]; Tobacco mosaic virus, treatment dose 500 μg/mL, read-out: Relative inhibition rate (%) In vivo protection): 42.4%
- inhibition of growth at 50 mg/kg ([25]; Alternaria solani, 96 h): 83.3%
- inhibition of growth at 50 mg/kg ([26]; Phytophthora capsici, 96 h): 60.6%

Compound: Cc1nc(C=O)cc2c1[nH]c1ccccc12 [Ia-13, 1-methyl-pyridino [3,4-b] indol-3-formaldehyde]
- melting point: 194 to 196 °C

Compound: CC[C@@H]1N[C@H](C(=O)O)Cc2c1[nH]c1ccccc21 [Ib-3, (1S, 3S)-1-ethyl-2,3,4,9-tetrahydropyridino [3,4-b] indol-3-formic acid]
- melting point: 277 to 280 °C

Compound: C[C@@H]1N[C@H](C(=O)NN=Cc2ccc(Cl)cc2)Cc2c1[nH]c1ccccc21 [Ic-5, (1S, 3S)—N′-(4-chlorobenzylidene)-1-methyl-2,3,4,9-tetrahydropyridino [3,4-b] indol-3-formylhydrazine]
- Bactericidal activity (%) Botrytis cinerea [5]: 59.1%
- Bactericidal activity (%) Rhizoctonia cereali [6]: 94.1%
- Relative inhibition rate (%) In vivo inactivation ([7]; treatment dose 100 μg/mL): 35.9%
- Relative inhibition rate (%) In vivo inactivation ([7]; treatment dose 500 μg/mL): 70.4%
- Bactericidal activity (%) Sclerotinia scleotiorum [8]: 88.2%
- Bactericidal activity (%) Fusarium graminearumt [9]: 75.9%
- Relative inhibition rate (%) In vitro activity ([10]; treatment dose 100 μg/mL): 30.8%
- Relative inhibition rate (%) In vitro activity ([10]; treatment dose 500 μg/mL): 67.3%
- Bactericidal activity (%) Macrophoma kawatsukai [11]: 97.2%
- Bactericidal activity (%) potato late blight [12]: 80.0%
- Bactericidal activity (%) Cercospora arachidicola [13]: 76.5%
- Relative inhibition rate (%) In vivo therapy ([14]; treatment dose 100 μg/mL): 29.2%
- Relative inhibition rate (%) In vivo therapy ([14]; treatment dose 500 μg/mL): 71.5%
- Bactericidal activity (%) Bipolaria maydis [15]: 68.0%
- Bactericidal activity (%) Cucumber fusarium wilt [16]: 61.5%
- Corn borer Mortality (%) [27]: 20%
- Bactericidal activity (%) Colletotrichum orbiculare [18]: 77.8%
- Cotton bollworm Mortality (%) [19]: 25%
- Bactericidal activity (%) Fusarium fujikuroi [20]: 64.3%
- Mosquito larvae Mortality (%) [21]: 50%
- Armyworm Mortality (%) [22]: 25%
- Bactericidal activity (%) Rhizoctonia solani [23]: 81.6%
- Relative inhibition rate (%) In vivo protection ([24]; treatment dose 100 μg/mL): 34.1%
- Relative inhibition rate (%) In vivo protection ([24]; treatment dose 500 μg/mL): 64.2%
- Bactericidal activity (%) Alternaria solani [25]: 55.0%
- Bactericidal activity (%) Phytophthora capsici [26]: 81.6%
- bactericidal activity against fungi (in words) [28]: very good bactericidal activity against various kinds of fungi

Compound: C[C@@H]1N[C@H](C(=O)NN=Cc2ccc(Cl)c(Cl)c2)Cc2c1[nH]c1ccccc21 [Ic-7, (1S, 3S)—N′-(3,4-dichlorobenzylidene)-1-methyl-2,3,4,9-tetrahydropyridino [3,4-b] indol-3-formylhydrazine]
- Bactericidal activity (%) Botrytis cinerea [5]: 80.6%
- Bactericidal activity (%) Rhizoctonia cereali [6]: 97.3%
- Relative inhibition rate (%) In vivo inactivation ([7]; treatment dose 100 μg/mL): 20.4%
- Relative inhibition rate (%) In vivo inactivation ([7]; treatment dose 500 μg/mL): 55.2%
- Bactericidal activity (%) Sclerotinia scleotiorum [8]: 84.6%
- Bactericidal activity (%) Fusarium graminearumt [9]: 76.9%
- Relative inhibition rate (%) In vitro activity ([10]; treatment dose 100 μg/mL): 15.1%
- Relative inhibition rate (%) In vitro activity ([10]; treatment dose 500 μg/mL): 50.7%
- Bactericidal activity (%) Macrophoma kawatsukai [11]: 97.0%
- Bactericidal activity (%) potato late blight [12]: 65.2%
- Bactericidal activity (%) Cercospora arachidicola [13]: 72.7%
- Relative inhibition rate (%) In vivo therapy ([14]; treatment dose 100 μg/mL): 23.5%
- Relative inhibition rate (%) In vivo therapy ([14]; treatment dose 500 μg/mL): 48.9%
- Bactericidal activity (%) Bipolaria maydis [15]: 80.0%
- Bactericidal activity (%) Cucumber fusarium wilt [16]: 77.3%
- Corn borer Mortality (%) [27]: 5%
- Bactericidal activity (%) Colletotrichum orbiculare [18]: 80.0%
- Cotton bollworm Mortality (%) [19]: 30%
- Bactericidal activity (%) Fusarium fujikuroi [20]: 70.6%
- Mosquito larvae Mortality (%) [21]: 10%
- Armyworm Mortality (%) [22]: 5%
- Bactericidal activity (%) Rhizoctonia solani [23]: 62.5%
- Relative inhibition rate (%) In vivo protection ([24]; treatment dose 100 μg/mL): 14.8%
- Relative inhibition rate (%) In vivo protection ([24]; treatment dose 500 μg/mL): 48.1%
- Bactericidal activity (%) Alternaria solani [25]: 71.4%
- Bactericidal activity (%) Phytophthora capsici [26]: 84.8%
- bactericidal activity against fungi (in words) [28]: very good bactericidal activity against various kinds of fungi
